Key:
[1] = test system: gene expression (123-gene melanoma signature); test: Microarray analysis of leflunomide treated zebrafish embryos; format: in vivo
[2] = test system: neural crest stem cells (NCSCs) from fetal (E14.5) rat gut; test: Rat neural crest stem cell assays (self-renewal, colony size, differentiation); format: cell-based
Procedure: Enteric NCSCs from the fetal (E14.5) rat gut were isolated using flow cytometry to select the 1%-2% of cells expressing the highest levels p75 and α4 integrin as previously described^9. Cells were plated at clonal density in two wells/treatment and cultured in self-renewal medium for 8 days in LEF, A771726 or the vehicle (DMSO) followed by differentiation medium+/−LEF, A771726 or DMSO for 6 days. Cultures were fixed in 4% PFA then stained with antibodies against peripherin, GFAP, and SMA to identify neurons (N), glia (G) and myofibroblasts (M) respectively (U=unstained cells). A total of 3 to 4 independent experiments were performed, and differences measured by ANOVA followed by Bonferonni posthoc comparison. Self-renewal medium contains: DMEM-low glucose, 15% Chick Embryo Extract (CEE), Penn/Strep (P/S), 1% N2 supplement, 2% B27 supplement, 110 nM Retinoic Acid, 50 μM 2-mercaptoethanol 20 ng/ml bFGF, and 20 ng/ml IGF-1. Differentiation medium is the same except it contains 1% CEE, 10 ng/ml bFGF and no IGF-1. Differences between groups were calculated using ANOVA followed by posthoc Sheffe.
Dissociated fetal rat gut cells were plated at clonal density in non-adherent conditions in self-renewal medium with LEF, a77 or DMSO for 10 days^10. Three to five primary neurospheres per treatment were individually re-plated in adherent conditions with LEF, a77 or DMSO and after three days were dissociated into a single cell suspension using trypsin and collagenase IV. Dissociated cells from each neurosphere were re-plated in non-adherent conditions without LEF or a77 and after 10 days, the number of secondary neurospheres were counted and compared. To assess the number of multipotent primary and secondary neurospheres, a subset of neurospheres were plated adherently for 8 days in self-renewal medium followed by 6 days in differentiation medium. Cultures were fixed in 4% PFA and stained with antibodies against peripherin, GFAP, and SMA to identify neurons (N), glia (G) and myofibroblasts (M) respectively. A total of 5 independent experiments were analyzed, and the number of multipotent secondary neurospheres on a given day are normalized to the DMSO control wells, and differences calculated by ANOVA.

[3] = test system: neural crest derivatives; test: Zebrafish neural crest assay (melanocytes, mitf-GFP, iridophores, mbp-mCherry glia, jaw cartilage); format: in vivo
Source text: The mitf-GFP transgenic was scored at 24 hpf, as this is the point of maximal GFP intensity.

[4] = test system: pigmented melanocytes in spt5m806 embryos; test: Spt5 hypomorphic experiments: pigmentation in spt5m806 incross; format: in vivo, zebrafish; conditions: 3 uM
Source text: This allele has only a mild pigment defect on its own. […] Embryos were scored at 48 hpf for pigmentation, scored as “unpigmented”, “light”, or “fully pigmented” as compared to untreated wells. Individual embryos were then genotyped for the spt5^m806 mutation as previously described^14. Kruskall-Wallis analysis was used to detect a difference between the genotyped groups.

[5] = test system: M481 cells; test: Cell viability of primary human melanoma cells M481; format: cell-based; conditions: FIG. 28a
Source text: FIG. 28a, M481 cells. FIG. 28b, A375 cells. FIG. 28c, M405 cells. FIG. 28d, M528 cells. FIG. 28e, M715 cells.

[6] = test system: CYP450 isoenzymes; conditions: parent compound and active metabolite; cited from earlier work

Compound: Cc1oncc1C(=O)Nc1ccc(C(F)(F)F)cc1 [leflunomide]
- number of genes upregulated ([1]; 6.5 uM, 50% epiboly to 24 hpf, 2-fold): 60 genes
- genes upregulated in the 123-gene melanoma signature that are downregulated ([1]; leflunomide treated embryos): 49%
- colony size reduced compared to controls [2]: 18%
- differentiation or survival of specific progeny [2]: no effect on differentiation or survival of specific progeny
- number of self-renewing NCSCs from primary stem cell colonies [2]: 27+/−5.35 % of controls
- microphthalmia ([3]; 2.5 uM from 5-72 hpf): microphthalmia was induced
- reflective iridophores on the surface of the eye ([3]; 2.5 uM from 5-72 hpf): reduction of reflective iridophores on the surface of the eye
- mitf-GFP+ cells ([3]; 24 hpf): nearly complete loss of mitf-GFP+ cells
- pigmented melanocytes ([3]; 36-48 hpf): devoid of pigmented melanocytes
- jaw cartilage ([3]; 72 hpf): jaw cartilage disruption
- myelin basic protein (mbp)-mCherry glial cells ([3]; 72 hpf): reduction of myelin basic protein (mbp)-mCherry glial cells
- embryos with few or no melanocytes, spt5m806 mutant ([4]; mutant embryos): 99%
- embryos with few or no melanocytes, wild type ([4]; wild type embryos): 0%
- cell survival of M481 cells [5]: impair cell survival
- metabolism by CYP450 isoenzymes [6]: Neither the parent compound nor the active metabolite is metabolized by CYP450 isoenzymes

From patent publication US10646478B2, “Methods for treatment of melanoma” (CHILDREN'S MEDICAL CENTER CORPORATION, priority 2011, dated 2020)
